From patent publication US20250122207A1, “AP2 ASSOCIATED KINASE 1 INHIBITORS AND USES THEREOF” (Satellos Bioscience Inc., priority 2023, published 2025)
Read-outs that look alike come from different tables or passages of the source.

What was measured:
[1] = biological target: T1, AAK1 (amino acids T27-A365) (Homo sapiens, UniProt Q2M2I8); assay: AAK1 pSENs assay; format: biochemical
T1 construct: against AAK1 (amino acids T27-A365); 6His (N, cleaved yes)
How it was run: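 Biotinylated, tag-free AAK1 T27-A365 expressed in E. coli was held at 20 nM in enzyme solution (HEPES pH 7.5, 10 mM MgCl2, DTT, EGTA, Brij35, BSA) and preincubated with compound for 15 min at 25 °C. The reaction was started with an equal volume of substrate solution containing 30 uM AQT0759 peptide and 70 uM ATP. IC50 determined.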

[2] = biological target: T2, GAK (amino acids Q25-N335) (Homo sapiens, UniProt O14976); assay: GAK pSENs assay; format: biochemical
T2 construct: against GAK (amino acids Q25-N335); 6His (N, cleaved yes)
T2 sequence (O14976 25-335): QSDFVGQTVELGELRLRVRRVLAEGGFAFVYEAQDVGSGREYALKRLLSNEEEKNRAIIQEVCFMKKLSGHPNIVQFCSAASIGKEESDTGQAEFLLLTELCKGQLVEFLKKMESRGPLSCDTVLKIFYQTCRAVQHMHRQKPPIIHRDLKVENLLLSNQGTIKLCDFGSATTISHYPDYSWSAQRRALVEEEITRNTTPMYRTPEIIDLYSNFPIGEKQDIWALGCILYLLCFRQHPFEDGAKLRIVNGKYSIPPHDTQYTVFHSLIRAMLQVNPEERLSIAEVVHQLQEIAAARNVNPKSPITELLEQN
Description: (§1) The recombinant proteins were independently expressed in Escherichia coli BL21(DE3) cells cultured in Luria-Bertani (LB) medium until OD600 reached 0.6-0.8, then cooled to 15° C. and supplemented with 0.5 mM isopropyl 1-thio-D-galactopyranoside (IPTG) induce protein expression 16 h. Cells were harvested and resuspended in lysis buffer (50 mM HEPES pH 7.5, 500 mM NaCl, 5 mM imidazole, 5% glycerol, 0.5 mM Tris (2-carboxyethyl) phosphine (TCEP), cOmplete Protease Inhibitor Tablet (Roche)) and lysed by microfludics high pressure homogenizer (UH-06, Union-Biotech). Proteins were purified using […] chromatography (His FF column, Bestchrom) and eluted stepwise in binding buffer with 20-300 mM imidazole. Removal of the hexahistidine tag was performed at 4° C. overnight using recombinant TEV protease and reacted with BirA to obtain the corresponding biotinylated-AAK1, BIKE or GAK proteins. Further separated in the reverse Strep column (Strep-Tactin® XT, IBA). The Biotin elution sample was collected containing untagged biotinylated protein was then purified by Ion-exchange chromatography (Mono Q 10/100 GL, Cytiva) and Size-exclusion chromatography (HiLoad 16/600 Superdex 200 pg, Cytiva). The pure protein was stored in a storage buffer 50 mM HEPES (pH 7.5), 300 mM NaCl, 5% glycerol at −80° C. Protein were characterized by SDS-PAGE, LC-MS and aSEC.
This example describes one illustrative method for determining the IC50 of the compounds of the present invention against GAK (amino acids Q25-N335).

AAK1 = AAK1 (Homo sapiens, UniProt Q2M2I8); assay: pAP2M1 cell-based assay (in-cell Western)
Text: pAP2M1 Cell-Based Assay (in-Cell Western):
The plate was read on Licor Odyssey CLx imaging system (LICOR) to acquire fluorescence intensity at 700 channel and 800 channel.
Data analysis: Fluorescence intensity at 700 channel served as internal standard and 800 channel were normalized with 700 channel.

[3] = biological target: T3, BIKE (amino acids S38-E345) (K320A, K321A) (Homo sapiens, UniProt Q9NSY1, K320A/K321A); assay: BIKE pSENs assay; format: biochemical
T3 construct: against BIKE (amino acids S38-E345) (K320A, K321A); 6His (N, cleaved yes)
Description: as §1
BIKE protein was dissolved at 20 nM in 1× enzyme solution (50 mM HEPES pH7.5, 10 mM MgCl2, 1 mM DTT, 1% glycerol, 0.5 mM EGTA, 0.01% Briji35, 0.02% BSA) and 12.5 ul was incubated with 250 nl DMSO or 250 nl compound in DMSO at 25° C. for 15 min. The reaction was started by addition of 12.5 ul of 30 uM AQT0759 (Assayquant, CSKS-AQT0759B) and 40 uM ATP which were diluted in 1× substrate dilution buffer (50 mM HEPES pH7.5, 10 mM MgCl2, 1 mM DTT, 1% glycerol, 0.5 mM EGTA, 0.01% Briji35).

[4] = class symbols, read-out: AAK1 pSENs: EIC50
[5] = class symbols, read-out: GAK pSENs:IC50
[6] = Hela cells co-transfected with AP2M1 and AAK1, 3 hr treatment, class symbols, read-out: AAK1 In-cell Western: IC50
[7] = class symbols, read-out: BIKE pSENs: IC50

T1 sequence (Q2M2I8 27-365): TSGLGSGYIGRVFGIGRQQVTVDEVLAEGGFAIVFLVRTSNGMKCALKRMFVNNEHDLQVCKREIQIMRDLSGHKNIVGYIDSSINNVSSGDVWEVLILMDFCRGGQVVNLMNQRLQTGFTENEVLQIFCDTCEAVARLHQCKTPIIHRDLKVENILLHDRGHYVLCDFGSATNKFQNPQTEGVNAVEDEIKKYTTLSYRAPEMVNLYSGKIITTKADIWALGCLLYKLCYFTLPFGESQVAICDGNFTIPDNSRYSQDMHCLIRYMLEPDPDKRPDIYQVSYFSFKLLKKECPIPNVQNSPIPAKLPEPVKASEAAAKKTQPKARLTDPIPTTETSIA
Chain of AAK1 (Q2M2I8 whole entry): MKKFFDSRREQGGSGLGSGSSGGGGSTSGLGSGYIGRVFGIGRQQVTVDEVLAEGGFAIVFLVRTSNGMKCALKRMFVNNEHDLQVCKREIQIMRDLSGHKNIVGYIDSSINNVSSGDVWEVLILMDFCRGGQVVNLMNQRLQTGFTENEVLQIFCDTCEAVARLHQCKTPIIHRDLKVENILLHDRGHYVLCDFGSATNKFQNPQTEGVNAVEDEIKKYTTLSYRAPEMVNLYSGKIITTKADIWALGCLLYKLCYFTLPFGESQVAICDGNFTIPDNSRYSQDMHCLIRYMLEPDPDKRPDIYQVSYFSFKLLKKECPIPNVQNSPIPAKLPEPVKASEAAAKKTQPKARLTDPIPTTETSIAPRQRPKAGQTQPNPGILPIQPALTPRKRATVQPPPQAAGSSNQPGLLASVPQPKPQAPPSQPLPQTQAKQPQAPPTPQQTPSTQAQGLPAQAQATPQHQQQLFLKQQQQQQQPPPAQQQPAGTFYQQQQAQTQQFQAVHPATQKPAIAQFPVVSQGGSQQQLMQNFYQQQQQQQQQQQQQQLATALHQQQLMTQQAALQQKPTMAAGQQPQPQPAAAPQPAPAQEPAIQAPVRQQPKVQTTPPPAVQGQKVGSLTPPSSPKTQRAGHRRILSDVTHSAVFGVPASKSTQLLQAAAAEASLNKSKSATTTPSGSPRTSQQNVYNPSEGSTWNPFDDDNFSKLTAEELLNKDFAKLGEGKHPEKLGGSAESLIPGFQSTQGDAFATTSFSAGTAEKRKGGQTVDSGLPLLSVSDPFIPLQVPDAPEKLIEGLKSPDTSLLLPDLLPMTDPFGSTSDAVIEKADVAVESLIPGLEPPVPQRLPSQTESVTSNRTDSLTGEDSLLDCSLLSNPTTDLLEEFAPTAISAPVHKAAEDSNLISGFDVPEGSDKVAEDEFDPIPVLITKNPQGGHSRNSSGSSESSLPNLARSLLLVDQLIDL
T3 sequence (Q9NSY1 38-345 K320A/K321A): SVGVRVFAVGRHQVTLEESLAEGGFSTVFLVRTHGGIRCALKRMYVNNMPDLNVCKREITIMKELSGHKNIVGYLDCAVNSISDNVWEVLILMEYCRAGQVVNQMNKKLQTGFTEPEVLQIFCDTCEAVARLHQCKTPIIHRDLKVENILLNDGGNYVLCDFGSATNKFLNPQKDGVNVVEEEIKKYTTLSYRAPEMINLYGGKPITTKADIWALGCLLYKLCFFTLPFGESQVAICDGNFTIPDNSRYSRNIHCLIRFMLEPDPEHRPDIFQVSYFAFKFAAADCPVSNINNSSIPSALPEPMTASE

Row | SMILES | IC50 [1, 4] | IC50 [2, 5] | IC50 (AAK1; [6]) | IC50 [3, 7] | other results
1 | O=C(O[C@H]1CO[C@H]2OCC[C@H]21)N1CCN(c2ccn3ncc(-c4cnccn4)c3n2)CC1 [Compound I-66, [(3aS,4R,6aR)-2,3,3a,4,5,6a-hexahydrofuro[2,3-b]furan-4-yl]-4-(3-pyrazin-2-ylpyrazolo[1,5-a]pyrimidin-5-yl)piperazine-1-carboxylate] | 151 to 500 nM | 501 to 1500 nM | 501 to 1500 nM | – | –
2 | C[C@@]1(OC(=O)N[C@H]2CCN(c3ccn4ncc(-c5cccnc5OC5CC5)c4n3)C2)CCNC1 [Compound I-57, (R)-3-methylpyrrolidin-3-yl ((S)-1-(3-(2-cyclopropoxypyridin-3-yl)pyrazolo[1,5-a]pyrimidin-5-yl)pyrrolidin-3-yl)carbamate] | 51 to 150 nM | 501 to 1500 nM | > 1500 nM | – | –
3 | [2H]C([2H])([2H])N1C[C@@H](OC(=O)N2CCN(c3nc4c(-c5cc(OC)cnc5OC5CC5)cnn4cc3F)CC2)CC1=O [Compound I-117, [(3S)-5-oxo-1-(trideuteriomethyl)pyrrolidin-3-yl]4-[3-[2-(cyclopropoxy)-5-methoxy-3-pyridyl]-6-fluoro-pyrazolo[1,5-a]pyrimidin-5-yl]piperazine-1-carboxylate] | 1 to 50 nM | 501 to 1500 nM | – | 1 to 50 nM | –
4 | COc1ncccc1-c1cnn2ccc(N3CCN(C(=O)OC(C)C)CC3)nc12 [LP-935509] | – | – | – | – | IC50 [2]: 720 nM; IC50 [3]: 33.3 nM
5 | CC1(OC(=O)N2CCN(c3ccn4ncc(-c5cccnc5OC5CC5)c4n3)CC2)CCNC1 (centres unmarked) [Compound I-13-5, (3-Methylpyrrolidin-3-yl) 4-[3-[2-(cyclopropoxy)-3-pyridyl]pyrazolo[1,5-a]pyrimidin-5-yl]piperazine-1-carboxylate] | – | 151 to 500 nM | – | 51 to 150 nM | –
6 | CC(C)Oc1ncccc1-c1cnn2ccc(N3CCN(C(=O)O[C@@]4(C)CCNC4)CC3)nc12 [Compound I-21, [(3S)-3-Methylpyrrolidin-3-yl]4-[3-(2-isopropoxy-3-pyridyl)pyrazolo[1,5-a]pyrimidin-5-yl]piperazine-1-carboxylate] | 51 to 150 nM | 501 to 1500 nM | > 1500 nM | – | –
7 | CC1(OC(=O)N2CCN(c3ccn4ncc(-c5cccnc5OCC5COC5)c4n3)CC2)COC1 [Compound I-20] | 151 to 500 nM | 501 to 1500 nM | > 1500 nM | – | –
8 | O=C1C[C@H](OC(=O)N2CCN(c3ccn4ncc(-c5cccnc5OC5CC5)c4n3)CC2)CN1 [Compound I-11, [(3S)-5-Oxopyrrolidin-3-yl]-4-[3-[2-(cyclopropoxy)-3-pyridyl]pyrazolo[1,5-a]pyrimidin-5-yl]piperazine-1-carboxylate hydrochloric acid] | 1 to 50 nM | – | 151 to 500 nM | 151 to 500 nM | –
9 | [2H]C1([2H])N(C(=O)O[C@H]2CC(=O)N(C)C2)C([2H])([2H])C([2H])([2H])N(c2ccn3ncc(-c4cccnc4OC4CC4)c3n2)C1([2H])[2H] [Compound I-73, [(3S)-1-methyl-5-oxo-pyrrolidin-3-yl]-4-[3-[2-(cyclopropoxy)-3-pyridyl]pyrazolo[1,5-a]pyrimidin-5-yl]-2,2,3,3,5,5,6,6-octadeuterio-piperazine-1-carboxylate] | – | – | – | – | IC50 [1]: 1 to 50 nM; AAK1:GAK pSENs Selectivity ([1]; ratio of AAK1 pSENs activity to GAK pSENs activity, class symbols): A (A: ≤0.015); IC50 (AAK1): 501 to 1500 nM; IC50 [3]: 501 to 1500 nM
10 | COc1ccccc1-c1cnn2ccc(N3CCN(C(=O)O[C@H]4CO[C@H]5OCC[C@H]54)CC3)nc12 [Compound I-69, (3R,3aS,6aR)-hexahydrofuro[2,3-b]furan-3-yl 4-(3-(2-methoxyphenyl)pyrazolo[1,5-a]pyrimidin-5-yl)piperazine-1-carboxylate] | 1 to 50 nM | – | 501 to 1500 nM | 151 to 500 nM | –
11 | COC(=O)N1CC(Oc2ncccc2-c2cnn3ccc(NCCN(C)C(=O)OC(C)(C)C)nc23)C1 [Compound I-64, Methyl3-[[3-[5-[2-[tert-butoxycarbonyl(methyl)amino]ethylamino]pyrazolo[1,5-a]pyrimidin-3-yl]-2-pyridyl]oxy]azetidine-1-carboxylate] | 1 to 50 nM | – | 51 to 150 nM | 51 to 150 nM | –
12 | [2H]C1([2H])N(C(=O)O[C@@H]2CNC(=O)C2)C([2H])([2H])C([2H])([2H])N(c2ccn3ncc(-c4cccnc4OC4CC4)c3n2)C1([2H])[2H] [Compound I-72, [(3S)-5-oxopyrrolidin-3-yl]4-[3-[2-(cyclopropoxy)-3-pyridyl]pyrazolo[1,5-a]pyrimidin-5-yl]-2,2,3,3,5,5,6,6-octadeuterio-piperazine-1-carboxylate] | – | – | – | – | IC50 [1]: 1 to 50 nM; IC50 (AAK1): 501 to 1500 nM; IC50 [3]: 151 to 500 nM
13 | CNCCN1C[C@@H](OC(=O)N2CCN(c3ccn4ncc(-c5cccnc5OC5CC5)c4n3)CC2)CC1=O [Compound I-36, (S)-1-(2-(methylamino)ethyl)-5-(oxopyrrolidin-3-yl)-4-(3-(2-cyclopropoxypyridin-3-yl)pyrazolo[1,5-a]pyrimidin-5-yl)piperazine-1-carboxylate] | 1 to 50 nM | – | 501 to 1500 nM | 51 to 150 nM | –
14 | CN1CC[C@@](C)(OC(=O)N2CCN(c3ccn4ncc(-c5cccnc5OC5CC5)c4n3)CC2)C1 [Compound I-50, [(3R)-1,3-dimethylpyrrolidin-3-yl]-4-[3-[2-(cyclopropoxy)-3-pyridyl]pyrazolo[1,5-a]pyrimidin-5-yl]piperazine-1-carboxylate] | 1 to 50 nM | – | 151 to 500 nM | 501 to 1500 nM | –
15 | O=C1C[C@@H](OC(=O)N2CCN(c3ccn4ncc(-c5cccnc5OC5CC5)c4n3)CC2)CN1 [Compound I-10, [(3R)-5-Oxopyrrolidin-3-yl]-4-[3-[2-(cyclopropoxy)-3-pyridyl]pyrazolo[1,5-a]pyrimidin-5-yl]piperazine-1-carboxylate] | 1 to 50 nM | – | 501 to 1500 nM | 151 to 500 nM | –
16 | O=C1C[C@H](OC(=O)N2CCN(c3ccn4ncc(-c5cccnc5NC5CCC5)c4n3)CC2)CN1 [Compound I-46, [(3S)-5-oxopyrrolidin-3-yl]4-[3-[2-(cyclobutylamino)-3-pyridyl]pyrazolo [1,5-a]pyrimidin-5-yl]piperazine-1-carboxylate] | > 1500 nM | 501 to 1500 nM | > 1500 nM | – | –
17 | CC(=O)N1CC(Oc2ncccc2-c2cnn3ccc(NCCN(C)C(=O)OC(C)(C)C)nc23)C1 [Compound I-63, Tert-butyl (2-((3-(2-((1-acetylazetidin-3-yl)oxy)pyridin-3-yl)pyrazolo[1,5-a]pyrimidin-5-yl)amino)ethyl)(methyl)carbamate] | 1 to 50 nM | – | 51 to 150 nM | 51 to 150 nM | –
18 | CN1C[C@@H](OC(=O)N2CCN(c3ccn4ncc(-c5cccnc5OC5CC5)c4n3)CC2)CC1=O [Compound I-34, [(3S)-1-methyl-5-oxo-pyrrolidin-3-yl]-4-[3-[2-(cyclopropoxy)-3-pyridyl]pyrazolo[1,5-a]pyrimidin-5-yl]piperazine-1-carboxylate] | 1 to 50 nM | – | 151 to 500 nM | – | IC50 [3]: 151 to 500 nM
